Measured values published in the kinase profiling compilation of Christmann-Franck et al. (2016).
Values joined by “and” are separate entries in the source; they are usually repeats but may differ in a detail not shown here. Identical values can stand only once.

Key:
Test in all cases: Caliper, Mobility shift assay off-chip
CDK2 (human) = CDK2 (human) (UniProt P24941)
CAMK2D (human) = CAMK2D (human) (UniProt Q13557)
MAPK11 (human) = MAPK11 (human) (UniProt Q15759)
AKT1 (human) = AKT1 (human) (UniProt P31749)
[1] = system: ABL1 (human), P00519 [Q252H]
EGFR (human) = EGFR (human) (UniProt P00533)
Chain of EGFR (human) (P00533 whole entry, looked up): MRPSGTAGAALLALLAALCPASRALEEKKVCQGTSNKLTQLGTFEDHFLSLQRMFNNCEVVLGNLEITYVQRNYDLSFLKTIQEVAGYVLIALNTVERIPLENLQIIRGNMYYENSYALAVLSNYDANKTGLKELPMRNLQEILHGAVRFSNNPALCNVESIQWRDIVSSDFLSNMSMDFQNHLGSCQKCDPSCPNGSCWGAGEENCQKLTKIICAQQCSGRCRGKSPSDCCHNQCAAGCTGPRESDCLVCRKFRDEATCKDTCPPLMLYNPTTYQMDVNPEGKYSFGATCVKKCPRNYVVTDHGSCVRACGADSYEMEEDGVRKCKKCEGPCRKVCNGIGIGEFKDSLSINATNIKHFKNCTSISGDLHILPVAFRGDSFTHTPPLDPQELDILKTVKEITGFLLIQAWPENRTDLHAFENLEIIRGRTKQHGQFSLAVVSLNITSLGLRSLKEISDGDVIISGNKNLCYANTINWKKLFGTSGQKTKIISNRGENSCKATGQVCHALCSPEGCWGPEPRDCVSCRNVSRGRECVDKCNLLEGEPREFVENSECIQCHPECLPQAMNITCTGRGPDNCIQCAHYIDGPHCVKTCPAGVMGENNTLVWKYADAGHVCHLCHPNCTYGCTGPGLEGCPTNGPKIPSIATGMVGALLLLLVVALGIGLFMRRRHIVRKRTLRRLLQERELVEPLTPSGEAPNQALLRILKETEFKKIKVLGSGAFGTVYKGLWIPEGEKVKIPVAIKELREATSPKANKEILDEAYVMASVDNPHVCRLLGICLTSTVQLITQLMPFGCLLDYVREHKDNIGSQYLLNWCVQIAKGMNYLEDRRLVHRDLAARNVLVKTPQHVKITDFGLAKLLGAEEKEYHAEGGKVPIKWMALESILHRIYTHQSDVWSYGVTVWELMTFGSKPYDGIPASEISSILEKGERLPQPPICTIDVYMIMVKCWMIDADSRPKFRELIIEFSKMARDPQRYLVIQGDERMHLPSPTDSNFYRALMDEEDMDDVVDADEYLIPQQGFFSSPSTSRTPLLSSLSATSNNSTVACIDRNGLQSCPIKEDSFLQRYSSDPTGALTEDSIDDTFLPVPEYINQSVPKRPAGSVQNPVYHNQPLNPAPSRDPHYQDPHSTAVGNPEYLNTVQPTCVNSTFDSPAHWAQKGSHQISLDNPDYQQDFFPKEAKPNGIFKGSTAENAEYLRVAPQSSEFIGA

CAMK2G (human) = CAMK2G (human) (UniProt Q13555)
[2] = system: FLT3 (human), P36888 [D835Y]
SGK2 (human) = SGK2 (human) (UniProt Q9HBY8)
RPS6KA2 KD1 KD2 (human) = RPS6KA2 KD1 KD2 (human) (UniProt Q15349)
TSSK1B (human) = TSSK1B (human) (UniProt Q9BXA7)
Chain of TSSK1B (human) (Q9BXA7 whole entry, looked up): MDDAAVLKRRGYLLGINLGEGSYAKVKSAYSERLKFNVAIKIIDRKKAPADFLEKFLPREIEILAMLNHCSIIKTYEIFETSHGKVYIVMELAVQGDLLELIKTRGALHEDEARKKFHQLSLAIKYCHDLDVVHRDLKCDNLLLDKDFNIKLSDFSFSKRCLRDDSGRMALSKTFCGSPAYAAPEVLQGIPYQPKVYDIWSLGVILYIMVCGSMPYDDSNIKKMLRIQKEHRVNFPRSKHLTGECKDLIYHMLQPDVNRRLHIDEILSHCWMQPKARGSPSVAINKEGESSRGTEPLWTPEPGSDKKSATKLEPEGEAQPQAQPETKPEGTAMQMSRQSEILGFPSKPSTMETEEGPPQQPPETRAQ

BTK (human) = BTK (human) (UniProt Q06187)
PRKCG (human) = PRKCG (human) (UniProt P05129)
FGFR4 (human) = FGFR4 (human) (UniProt P22455)
Chain of FGFR4 (human) (P22455 whole entry, looked up): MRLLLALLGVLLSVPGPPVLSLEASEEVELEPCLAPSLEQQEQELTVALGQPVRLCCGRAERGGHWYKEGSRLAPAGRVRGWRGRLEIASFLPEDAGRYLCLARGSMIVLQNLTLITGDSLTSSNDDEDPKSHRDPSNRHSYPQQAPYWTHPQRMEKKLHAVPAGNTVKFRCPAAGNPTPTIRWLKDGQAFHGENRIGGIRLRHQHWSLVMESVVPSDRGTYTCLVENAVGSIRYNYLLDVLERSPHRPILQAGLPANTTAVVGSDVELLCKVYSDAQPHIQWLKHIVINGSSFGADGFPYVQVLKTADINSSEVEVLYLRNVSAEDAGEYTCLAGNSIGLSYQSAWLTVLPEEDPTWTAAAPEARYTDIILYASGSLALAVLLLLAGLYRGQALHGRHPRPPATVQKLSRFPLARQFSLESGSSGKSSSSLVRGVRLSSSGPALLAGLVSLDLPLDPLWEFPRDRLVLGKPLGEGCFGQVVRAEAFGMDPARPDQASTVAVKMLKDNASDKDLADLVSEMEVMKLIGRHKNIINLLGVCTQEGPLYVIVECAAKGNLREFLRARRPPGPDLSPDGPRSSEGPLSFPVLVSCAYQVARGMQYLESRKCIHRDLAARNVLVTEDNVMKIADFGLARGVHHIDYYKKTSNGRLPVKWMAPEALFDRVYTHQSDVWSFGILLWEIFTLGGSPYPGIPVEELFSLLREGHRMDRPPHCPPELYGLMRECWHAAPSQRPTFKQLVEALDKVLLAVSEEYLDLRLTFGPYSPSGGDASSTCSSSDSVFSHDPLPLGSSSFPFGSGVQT

PRKG1 (human) = PRKG1 (human) (UniProt Q13976)
Chain of PRKG1 (human) (Q13976 whole entry, looked up): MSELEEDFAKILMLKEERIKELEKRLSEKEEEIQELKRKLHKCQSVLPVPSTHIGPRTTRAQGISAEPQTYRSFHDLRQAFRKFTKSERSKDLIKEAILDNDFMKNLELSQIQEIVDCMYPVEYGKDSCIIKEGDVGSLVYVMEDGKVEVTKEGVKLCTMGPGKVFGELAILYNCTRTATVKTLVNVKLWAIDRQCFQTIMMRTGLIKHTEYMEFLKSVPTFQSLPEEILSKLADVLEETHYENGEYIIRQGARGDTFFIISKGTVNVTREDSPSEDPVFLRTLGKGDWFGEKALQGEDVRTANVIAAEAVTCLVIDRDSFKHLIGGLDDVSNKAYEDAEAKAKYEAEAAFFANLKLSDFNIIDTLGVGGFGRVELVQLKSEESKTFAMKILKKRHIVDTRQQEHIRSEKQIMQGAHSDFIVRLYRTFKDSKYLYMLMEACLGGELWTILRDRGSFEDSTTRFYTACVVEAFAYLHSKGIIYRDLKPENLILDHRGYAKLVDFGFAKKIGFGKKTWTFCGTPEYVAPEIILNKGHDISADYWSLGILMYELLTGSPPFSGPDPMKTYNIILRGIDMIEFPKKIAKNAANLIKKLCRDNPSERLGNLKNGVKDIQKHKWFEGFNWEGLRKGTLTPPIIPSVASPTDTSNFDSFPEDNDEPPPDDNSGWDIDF

AURKB (human) = AURKB (human) (UniProt Q96GD4)
FYN (human) = FYN (human) (UniProt P06241)
AURKC (human) = AURKC (human) (UniProt Q9UQB9)
AURKA (human) = AURKA (human) (UniProt O14965)
CAMK4 (human) = CAMK4 (human) (UniProt Q16566)
PDGFRA (human) = PDGFRA (human) (UniProt P16234)
RPS6KA5 KD1 KD2 (human) = RPS6KA5 KD1 KD2 (human) (UniProt O75582)
PRKCE (human) = PRKCE (human) (UniProt Q02156)
MAPKAPK2 (human) = MAPKAPK2 (human) (UniProt P49137)
PRKCH (human) = PRKCH (human) (UniProt P24723)
TSSK2 (human) = TSSK2 (human) (UniProt Q96PF2)
PRKD3 (human) = PRKD3 (human) (UniProt O94806)
FER (human) = FER (human) (UniProt P16591)
Chain of FER (human) (P16591 whole entry, looked up): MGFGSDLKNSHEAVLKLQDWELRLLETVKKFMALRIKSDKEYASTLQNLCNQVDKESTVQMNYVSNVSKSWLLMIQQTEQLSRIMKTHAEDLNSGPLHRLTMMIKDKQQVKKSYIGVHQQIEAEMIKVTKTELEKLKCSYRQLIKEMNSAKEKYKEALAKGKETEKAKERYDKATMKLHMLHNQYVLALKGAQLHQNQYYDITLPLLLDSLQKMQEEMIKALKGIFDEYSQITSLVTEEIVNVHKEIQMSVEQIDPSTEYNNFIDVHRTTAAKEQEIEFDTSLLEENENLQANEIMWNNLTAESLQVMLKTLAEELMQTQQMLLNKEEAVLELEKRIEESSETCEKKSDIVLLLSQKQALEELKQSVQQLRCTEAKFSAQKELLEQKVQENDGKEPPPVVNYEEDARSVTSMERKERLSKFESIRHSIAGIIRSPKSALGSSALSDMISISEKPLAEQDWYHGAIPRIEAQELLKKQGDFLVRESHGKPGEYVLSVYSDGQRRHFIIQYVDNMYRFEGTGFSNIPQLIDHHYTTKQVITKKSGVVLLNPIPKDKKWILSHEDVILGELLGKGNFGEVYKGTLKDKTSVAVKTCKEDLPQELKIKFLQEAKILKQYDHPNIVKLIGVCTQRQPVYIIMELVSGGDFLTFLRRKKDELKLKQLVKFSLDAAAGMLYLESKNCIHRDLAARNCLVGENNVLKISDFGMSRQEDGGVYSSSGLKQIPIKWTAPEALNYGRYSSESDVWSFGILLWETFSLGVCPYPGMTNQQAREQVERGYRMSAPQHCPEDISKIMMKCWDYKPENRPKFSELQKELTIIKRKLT

LYN (human) = LYN (human) (UniProt P07948)
Chain of LYN (human) (P07948 whole entry, looked up): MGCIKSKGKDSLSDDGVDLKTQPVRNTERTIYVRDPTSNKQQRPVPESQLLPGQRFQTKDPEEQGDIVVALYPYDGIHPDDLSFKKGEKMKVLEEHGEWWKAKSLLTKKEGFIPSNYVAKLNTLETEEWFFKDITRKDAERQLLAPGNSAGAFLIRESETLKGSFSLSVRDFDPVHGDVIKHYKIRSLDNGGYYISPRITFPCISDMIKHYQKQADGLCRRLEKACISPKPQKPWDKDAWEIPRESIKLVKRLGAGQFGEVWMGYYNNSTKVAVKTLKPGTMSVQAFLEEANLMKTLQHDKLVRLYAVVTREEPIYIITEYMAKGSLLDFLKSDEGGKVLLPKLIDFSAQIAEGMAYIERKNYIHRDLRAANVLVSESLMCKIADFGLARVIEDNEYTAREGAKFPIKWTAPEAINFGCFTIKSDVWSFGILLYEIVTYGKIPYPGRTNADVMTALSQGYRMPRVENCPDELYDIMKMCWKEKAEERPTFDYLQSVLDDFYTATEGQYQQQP

PRKCB2 (human) = PRKCB2 (human) (UniProt P05771)
MAPK13 (human) = MAPK13 (human) (UniProt O15264)
FGFR2 (human) = FGFR2 (human) (UniProt P21802)
RPS6KA3 KD1 KD2 (human) = RPS6KA3 KD1 KD2 (human) (UniProt P51812)
STK3 (human) = STK3 (human) (UniProt Q13188)
Chain of STK3 (human) (Q13188 whole entry, looked up): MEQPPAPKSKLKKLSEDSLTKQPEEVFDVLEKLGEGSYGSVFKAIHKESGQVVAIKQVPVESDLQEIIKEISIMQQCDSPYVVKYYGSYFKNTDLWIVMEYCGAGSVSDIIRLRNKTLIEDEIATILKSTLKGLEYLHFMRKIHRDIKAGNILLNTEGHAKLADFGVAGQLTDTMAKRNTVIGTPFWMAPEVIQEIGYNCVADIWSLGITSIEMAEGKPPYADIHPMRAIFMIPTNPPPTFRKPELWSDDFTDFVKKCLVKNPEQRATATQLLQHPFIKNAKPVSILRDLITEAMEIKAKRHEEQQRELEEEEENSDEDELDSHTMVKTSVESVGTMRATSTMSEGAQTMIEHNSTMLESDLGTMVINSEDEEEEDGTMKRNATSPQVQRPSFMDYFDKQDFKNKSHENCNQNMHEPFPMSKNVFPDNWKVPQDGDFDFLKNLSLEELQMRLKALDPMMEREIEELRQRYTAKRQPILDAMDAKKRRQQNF

## Cn1cc(-c2cnc3ccc4ccc(CS(=O)(=O)NC5CCCCC5)cc4c(=O)c3c2)cn1
CDK2 (human); compound 0.01 µM
  inhibition: -2.1%
CDK2 (human); compound 0.1 µM
  inhibition: 11.7%
CAMK2D (human); compound 0.01 µM
  inhibition: 2.4%
CAMK2D (human); compound 0.1 µM
  inhibition: -6.5%
MAPK11 (human); compound 0.01 µM
  inhibition: -7.7%
MAPK11 (human); compound 0.1 µM
  inhibition: 4.9%
AKT1 (human); compound 0.01 µM
  inhibition: 0.8%
AKT1 (human); compound 0.1 µM
  inhibition: 7.4%
[1]; compound 0.01 µM
  inhibition: 2.5%
[1]; compound 0.1 µM
  inhibition: 7.6%
EGFR (human); compound 0.01 µM
  inhibition: -7.2%
EGFR (human); compound 0.1 µM
  inhibition: -1%
CAMK2G (human); compound 0.01 µM
  inhibition: 13.5%
CAMK2G (human); compound 0.1 µM
  inhibition: -2.8%
[2]; compound 0.01 µM
  inhibition: -3%
[2]; compound 0.1 µM
  inhibition: 6.8%
SGK2 (human); compound 0.01 µM
  inhibition: -1.3%
SGK2 (human); compound 0.1 µM
  inhibition: -0.1%
RPS6KA2 KD1 KD2 (human); compound 0.01 µM
  inhibition: 6.7%
RPS6KA2 KD1 KD2 (human); compound 0.1 µM
  inhibition: 10.4%
TSSK1B (human); compound 0.01 µM
  inhibition: -3.1%
TSSK1B (human); compound 0.1 µM
  inhibition: 1.9%
BTK (human); compound 0.01 µM
  inhibition: 8.4%
BTK (human); compound 0.1 µM
  inhibition: 5.5%
PRKCG (human); compound 0.01 µM
  inhibition: 2.4%
PRKCG (human); compound 0.1 µM
  inhibition: 2.1%
FGFR4 (human); compound 0.01 µM
  inhibition: -3%
FGFR4 (human); compound 0.1 µM
  inhibition: 9.7%
PRKG1 (human); compound 0.01 µM
  inhibition: 3.2% and -1.8%
PRKG1 (human); compound 0.1 µM
  inhibition: 9.2% and -4.9%
AURKB (human); compound 0.01 µM
  inhibition: -0.1%
AURKB (human); compound 0.1 µM
  inhibition: 11.7%
FYN (human); compound 0.01 µM
  inhibition: -0.7%
FYN (human); compound 0.1 µM
  inhibition: -3%
AURKC (human); compound 0.01 µM
  inhibition: -1.6%
AURKC (human); compound 0.1 µM
  inhibition: 15.4%
AURKA (human); compound 0.01 µM
  inhibition: 5.8%
AURKA (human); compound 0.1 µM
  inhibition: 6.9%
CAMK4 (human); compound 0.01 µM
  inhibition: 2.1%
CAMK4 (human); compound 0.1 µM
  inhibition: 2.3%
PDGFRA (human); compound 0.01 µM
  inhibition: 0.2%
PDGFRA (human); compound 0.1 µM
  inhibition: 9%
RPS6KA5 KD1 KD2 (human); compound 0.01 µM
  inhibition: 3.4%
RPS6KA5 KD1 KD2 (human); compound 0.1 µM
  inhibition: -4.2%
PRKCE (human); compound 0.01 µM
  inhibition: -0.5%
PRKCE (human); compound 0.1 µM
  inhibition: 3.8%
MAPKAPK2 (human); compound 0.01 µM
  inhibition: -0.8%
MAPKAPK2 (human); compound 0.1 µM
  inhibition: -0.9%
PRKCH (human); compound 0.01 µM
  inhibition: -2.5%
PRKCH (human); compound 0.1 µM
  inhibition: -14.9%
TSSK2 (human); compound 0.01 µM
  inhibition: 2.5%
TSSK2 (human); compound 0.1 µM
  inhibition: 0.7%
PRKD3 (human); compound 0.01 µM
  inhibition: -2.4%
PRKD3 (human); compound 0.1 µM
  inhibition: 10.4%
FER (human); compound 0.01 µM
  inhibition: -1%
FER (human); compound 0.1 µM
  inhibition: 0.2%
LYN (human); compound 0.01 µM
  inhibition: 9.1%
LYN (human); compound 0.1 µM
  inhibition: 3.6%
PRKCB2 (human); compound 0.01 µM
  inhibition: 1.4%
PRKCB2 (human); compound 0.1 µM
  inhibition: 5.7%
MAPK13 (human); compound 0.01 µM
  inhibition: -5.2%
MAPK13 (human); compound 0.1 µM
  inhibition: -3%
FGFR2 (human); compound 0.01 µM
  inhibition: 0.5%
FGFR2 (human); compound 0.1 µM
  inhibition: 16.5%
RPS6KA3 KD1 KD2 (human); compound 0.01 µM
  inhibition: -3.6%
RPS6KA3 KD1 KD2 (human); compound 0.1 µM
  inhibition: -3.8%
STK3 (human); compound 0.01 µM
  inhibition: 7.9%
STK3 (human); compound 0.1 µM
  inhibition: 17.7%
